What was measured:
Format in all cases: biochemical
MARK3 = MARK3 (Homo sapiens, UniProt P27448); assay: Kinase profiling MARK3; conditions: 100 micromolar inhibitor concentration, 100 is no change
Description: (§1) Any value less that 25 is considered to be highly significant inhibition.

MSK1 = MSK1 (Homo sapiens, UniProt O75582); assay: Kinase profiling MSK1; conditions: 100 micromolar inhibitor concentration, 100 is no change
Description: as §1

BTK = BTK (Homo sapiens, UniProt Q06187); assay: Kinase profiling BTK; conditions: 100 micromolar inhibitor concentration, 100 is no change
Description: as §1

PLK1 = PLK1 (Homo sapiens, UniProt P53350); assay: Kinase profiling PLK1; conditions: 100 micromolar inhibitor concentration, 100 is no change
Description: as §1

PKA = PKA (Homo sapiens, UniProt P17612); assay: Kinase profiling PKA; conditions: 100 micromolar inhibitor concentration, 100 is no change
Description: as §1

CAMKKb = CAMKKb (Homo sapiens, UniProt Q96RR4); assay: Kinase profiling CAMKKb; conditions: 100 micromolar inhibitor concentration, 100 is no change
Description: as §1

p38a MAPK = p38a MAPK (Homo sapiens, UniProt Q16539); assay: Kinase profiling p38a MAPK; conditions: 100 micromolar inhibitor concentration, 100 is no change
Description: as §1

DYRK1A = DYRK1A (Homo sapiens, UniProt Q13627); assay: DYRK 1A assay (kinase profiling); conditions: 100 micromolar inhibitor concentration, 100 is no change
Procedure: Assays are stopped by addition of 5 μl of 0.5 M (3%) orthophosphoric acid and then harvested onto P81 Unifilter plates with a wash buffer of 50 mM orthophosphoric acid.
as §1

RSK2 = RSK2 (Homo sapiens, UniProt P51812); assay: Kinase profiling RSK2; conditions: 100 micromolar inhibitor concentration, 100 is no change
Description: as §1

SYK = SYK (Homo sapiens, UniProt P43405); assay: Kinase profiling SYK; conditions: 100 micromolar inhibitor concentration, 100 is no change
Description: as §1

CHK2 = CHK2 (Homo sapiens, UniProt O96017); assay: Kinase profiling CHK2; conditions: 100 micromolar inhibitor concentration, 100 is no change
Description: as §1

TBK1 = target: T1, TBK1 (Homo sapiens, UniProt Q9UHD2); assay: Kinase profiling TBK1; conditions: 100 micromolar inhibitor concentration, 100 is no change
T1 sequence (Q9UHD2 1-729): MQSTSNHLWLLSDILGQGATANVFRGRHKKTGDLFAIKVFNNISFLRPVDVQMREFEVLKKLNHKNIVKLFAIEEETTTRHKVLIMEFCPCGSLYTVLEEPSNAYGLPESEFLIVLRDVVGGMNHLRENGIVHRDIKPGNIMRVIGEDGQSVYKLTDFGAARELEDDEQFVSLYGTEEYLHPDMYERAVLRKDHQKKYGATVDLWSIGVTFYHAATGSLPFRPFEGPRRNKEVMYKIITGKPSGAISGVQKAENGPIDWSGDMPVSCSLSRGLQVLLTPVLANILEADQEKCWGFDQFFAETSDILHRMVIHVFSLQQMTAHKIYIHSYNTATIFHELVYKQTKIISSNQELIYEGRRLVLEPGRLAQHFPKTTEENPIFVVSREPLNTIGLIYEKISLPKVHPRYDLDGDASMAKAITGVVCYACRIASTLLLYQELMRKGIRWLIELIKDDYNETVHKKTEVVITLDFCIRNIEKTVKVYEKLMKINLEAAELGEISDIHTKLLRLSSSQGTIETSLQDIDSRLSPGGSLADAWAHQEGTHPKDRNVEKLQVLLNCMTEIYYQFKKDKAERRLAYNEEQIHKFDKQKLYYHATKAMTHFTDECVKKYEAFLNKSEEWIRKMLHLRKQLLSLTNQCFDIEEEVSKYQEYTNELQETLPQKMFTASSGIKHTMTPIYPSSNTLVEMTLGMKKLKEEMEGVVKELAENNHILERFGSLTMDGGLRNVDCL
Description: as §1

MKK1 = MKK1 (Homo sapiens, UniProt Q02750); assay: Kinase profiling MKK1; conditions: 100 micromolar inhibitor concentration, 100 is no change
Description: as §1

PKCa = PKCa (Homo sapiens, UniProt P17252); assay: Kinase profiling PKCa; conditions: 100 micromolar inhibitor concentration, 100 is no change
Description: as §1

Lck = Lck (Homo sapiens, UniProt P06239); assay: Kinase profiling Lck; conditions: 100 micromolar inhibitor concentration, 100 is no change
Description: as §1

EPH-A2 = EPH-A2 (Homo sapiens, UniProt P29317); assay: Kinase profiling EPH-A2; conditions: 100 micromolar inhibitor concentration, 100 is no change
Description: as §1

JAK2 = JAK2 (Homo sapiens, UniProt O60674); assay: Kinase profiling JAK2; conditions: 100 micromolar inhibitor concentration, 100 is no change
Description: as §1

PDK1 = target: T2, PDK1 (Homo sapiens, UniProt O15530); assay: Kinase profiling PDK1; conditions: 100 micromolar inhibitor concentration, 100 is no change
T2 sequence (O15530 1-556): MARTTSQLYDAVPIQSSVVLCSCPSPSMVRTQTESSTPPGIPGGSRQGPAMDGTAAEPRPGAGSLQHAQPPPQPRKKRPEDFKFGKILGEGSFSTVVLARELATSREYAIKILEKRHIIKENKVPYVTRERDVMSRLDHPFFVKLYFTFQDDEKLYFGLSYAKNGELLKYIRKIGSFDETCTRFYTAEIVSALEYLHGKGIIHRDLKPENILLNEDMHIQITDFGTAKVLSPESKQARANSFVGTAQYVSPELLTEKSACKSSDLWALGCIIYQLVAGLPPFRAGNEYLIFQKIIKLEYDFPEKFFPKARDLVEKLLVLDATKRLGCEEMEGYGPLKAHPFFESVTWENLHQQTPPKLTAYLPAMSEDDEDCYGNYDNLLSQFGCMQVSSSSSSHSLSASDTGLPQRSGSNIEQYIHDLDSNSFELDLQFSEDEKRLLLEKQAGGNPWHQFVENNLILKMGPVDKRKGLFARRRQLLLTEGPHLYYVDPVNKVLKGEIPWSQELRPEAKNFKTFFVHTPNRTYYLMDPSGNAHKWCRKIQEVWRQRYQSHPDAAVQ
Description: as §1

PKBa = PKBa (Homo sapiens, UniProt P31749); assay: Kinase profiling PKBa; conditions: for residual kinase activity, PKBa: 100 micromolar inhibitor concentration, 100 is no change
Description: as §1

p38b MAPK = p38b MAPK (Homo sapiens, UniProt Q15759); assay: Kinase profiling p38b MAPK; conditions: 100 micromolar inhibitor concentration, 100 is no change
Description: as §1

EF2K = EF2K (Homo sapiens, UniProt O00418); assay: Kinase profiling EF2K; conditions: 100 micromolar inhibitor concentration, 100 is no change
Description: as §1

PAK4 = PAK4 (Homo sapiens, UniProt O96013); assay: Kinase profiling PAK4; conditions: 100 micromolar inhibitor concentration, 100 is no change
Description: as §1

RIPK2 = RIPK2 (Homo sapiens, UniProt O43353); assay: Kinase profiling RIPK2; conditions: 100 micromolar inhibitor concentration, 100 is no change
Description: as §1

PIM1 = PIM1 (Homo sapiens, UniProt P11309); assay: Kinase profiling PIM1; conditions: 100 micromolar inhibitor concentration, 100 is no change
Description: as §1

CAMKKb, sequence (Q96RR4 whole entry, species assumed): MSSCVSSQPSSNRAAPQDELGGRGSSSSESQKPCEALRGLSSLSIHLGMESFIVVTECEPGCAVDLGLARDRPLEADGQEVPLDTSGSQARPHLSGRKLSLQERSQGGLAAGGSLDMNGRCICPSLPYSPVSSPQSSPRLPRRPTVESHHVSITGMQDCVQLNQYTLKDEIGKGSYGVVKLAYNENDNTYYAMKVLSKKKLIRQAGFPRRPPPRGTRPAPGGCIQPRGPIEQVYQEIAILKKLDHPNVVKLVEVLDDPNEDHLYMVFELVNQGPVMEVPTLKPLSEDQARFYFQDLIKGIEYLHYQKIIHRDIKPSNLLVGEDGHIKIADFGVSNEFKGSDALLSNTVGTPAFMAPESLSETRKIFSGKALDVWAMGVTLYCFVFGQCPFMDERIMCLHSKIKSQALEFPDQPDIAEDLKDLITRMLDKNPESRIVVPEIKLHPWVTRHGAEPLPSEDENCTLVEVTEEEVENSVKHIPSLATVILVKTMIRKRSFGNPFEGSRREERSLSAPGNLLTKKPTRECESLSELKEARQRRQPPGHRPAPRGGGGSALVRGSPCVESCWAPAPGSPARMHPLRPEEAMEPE
MARK3, sequence (P27448 whole entry, species assumed): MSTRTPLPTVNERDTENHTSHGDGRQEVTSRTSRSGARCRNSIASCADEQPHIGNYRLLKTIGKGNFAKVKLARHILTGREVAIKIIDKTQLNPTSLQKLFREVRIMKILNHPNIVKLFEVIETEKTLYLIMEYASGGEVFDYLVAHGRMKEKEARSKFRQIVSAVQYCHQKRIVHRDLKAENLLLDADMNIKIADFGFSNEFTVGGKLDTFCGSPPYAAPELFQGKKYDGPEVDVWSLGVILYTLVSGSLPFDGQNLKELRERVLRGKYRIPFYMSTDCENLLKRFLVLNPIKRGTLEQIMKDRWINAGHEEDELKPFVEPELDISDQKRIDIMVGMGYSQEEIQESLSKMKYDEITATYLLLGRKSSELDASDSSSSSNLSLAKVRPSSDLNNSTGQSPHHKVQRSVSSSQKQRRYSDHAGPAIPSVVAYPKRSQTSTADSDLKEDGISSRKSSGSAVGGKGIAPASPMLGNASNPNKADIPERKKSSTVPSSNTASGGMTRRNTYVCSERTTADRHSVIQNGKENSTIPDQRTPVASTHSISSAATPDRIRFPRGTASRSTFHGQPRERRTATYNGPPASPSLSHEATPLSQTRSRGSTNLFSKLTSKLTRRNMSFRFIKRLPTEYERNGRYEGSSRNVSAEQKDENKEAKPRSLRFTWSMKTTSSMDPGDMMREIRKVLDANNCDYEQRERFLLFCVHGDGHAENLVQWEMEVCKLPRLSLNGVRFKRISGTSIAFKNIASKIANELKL
PLK1, sequence (P53350 whole entry, species assumed): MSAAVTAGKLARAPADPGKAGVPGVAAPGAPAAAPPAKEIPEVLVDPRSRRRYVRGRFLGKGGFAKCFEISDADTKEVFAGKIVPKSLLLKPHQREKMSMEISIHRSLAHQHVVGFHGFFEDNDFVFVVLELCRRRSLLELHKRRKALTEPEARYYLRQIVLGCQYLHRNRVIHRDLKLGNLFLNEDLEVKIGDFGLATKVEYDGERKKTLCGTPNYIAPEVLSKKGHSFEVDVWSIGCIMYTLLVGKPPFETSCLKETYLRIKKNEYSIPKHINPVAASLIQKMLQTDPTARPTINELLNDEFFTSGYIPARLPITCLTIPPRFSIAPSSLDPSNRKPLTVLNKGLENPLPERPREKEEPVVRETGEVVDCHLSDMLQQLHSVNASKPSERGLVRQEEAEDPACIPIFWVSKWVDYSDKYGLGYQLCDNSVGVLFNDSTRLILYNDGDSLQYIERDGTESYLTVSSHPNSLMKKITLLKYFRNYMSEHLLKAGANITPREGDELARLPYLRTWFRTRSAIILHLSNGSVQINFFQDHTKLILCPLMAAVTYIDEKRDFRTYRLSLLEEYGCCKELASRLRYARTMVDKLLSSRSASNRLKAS
Lck, sequence (P06239 whole entry, species assumed): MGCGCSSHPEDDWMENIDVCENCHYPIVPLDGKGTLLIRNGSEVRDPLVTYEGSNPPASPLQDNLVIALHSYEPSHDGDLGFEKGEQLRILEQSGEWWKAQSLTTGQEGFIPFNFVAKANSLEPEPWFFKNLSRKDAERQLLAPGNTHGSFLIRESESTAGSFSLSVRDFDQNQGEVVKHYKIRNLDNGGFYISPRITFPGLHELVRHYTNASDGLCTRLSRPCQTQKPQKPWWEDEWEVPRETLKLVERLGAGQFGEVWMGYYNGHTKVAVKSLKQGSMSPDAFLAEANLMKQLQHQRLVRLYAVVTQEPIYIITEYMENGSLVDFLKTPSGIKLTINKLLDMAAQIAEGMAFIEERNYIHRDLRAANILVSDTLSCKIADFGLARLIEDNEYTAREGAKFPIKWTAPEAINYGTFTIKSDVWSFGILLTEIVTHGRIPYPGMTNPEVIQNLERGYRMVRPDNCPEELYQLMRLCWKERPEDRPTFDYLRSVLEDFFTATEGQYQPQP
BTK, sequence (Q06187 whole entry, species assumed): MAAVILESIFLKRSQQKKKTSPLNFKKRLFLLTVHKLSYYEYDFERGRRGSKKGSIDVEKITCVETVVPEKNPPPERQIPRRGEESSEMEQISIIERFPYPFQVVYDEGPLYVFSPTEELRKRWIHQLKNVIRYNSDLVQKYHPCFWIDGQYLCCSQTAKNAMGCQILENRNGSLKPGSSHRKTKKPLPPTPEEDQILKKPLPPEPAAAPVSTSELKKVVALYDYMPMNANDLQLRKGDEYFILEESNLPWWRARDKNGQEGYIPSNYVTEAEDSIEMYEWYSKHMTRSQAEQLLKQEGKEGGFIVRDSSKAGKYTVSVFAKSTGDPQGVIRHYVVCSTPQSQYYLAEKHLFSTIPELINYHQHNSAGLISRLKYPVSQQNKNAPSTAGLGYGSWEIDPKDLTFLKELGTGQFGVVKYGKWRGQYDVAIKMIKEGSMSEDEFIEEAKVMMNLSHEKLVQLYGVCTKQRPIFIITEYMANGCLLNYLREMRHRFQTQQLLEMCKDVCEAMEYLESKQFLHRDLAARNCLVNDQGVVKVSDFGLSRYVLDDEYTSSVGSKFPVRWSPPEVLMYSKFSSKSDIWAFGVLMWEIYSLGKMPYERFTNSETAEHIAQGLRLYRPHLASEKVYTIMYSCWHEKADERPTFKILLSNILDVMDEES
PIM1, sequence (P11309 whole entry, species assumed): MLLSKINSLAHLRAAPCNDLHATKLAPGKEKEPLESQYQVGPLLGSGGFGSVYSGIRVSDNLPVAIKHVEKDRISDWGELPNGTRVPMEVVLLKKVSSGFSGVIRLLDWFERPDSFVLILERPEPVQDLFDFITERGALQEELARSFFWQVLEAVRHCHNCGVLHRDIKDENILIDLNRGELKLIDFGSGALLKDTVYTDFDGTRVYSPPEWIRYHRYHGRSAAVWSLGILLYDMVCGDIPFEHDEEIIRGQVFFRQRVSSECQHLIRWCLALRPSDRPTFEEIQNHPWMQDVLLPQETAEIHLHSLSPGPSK
CHK2, sequence (O96017 whole entry, species assumed): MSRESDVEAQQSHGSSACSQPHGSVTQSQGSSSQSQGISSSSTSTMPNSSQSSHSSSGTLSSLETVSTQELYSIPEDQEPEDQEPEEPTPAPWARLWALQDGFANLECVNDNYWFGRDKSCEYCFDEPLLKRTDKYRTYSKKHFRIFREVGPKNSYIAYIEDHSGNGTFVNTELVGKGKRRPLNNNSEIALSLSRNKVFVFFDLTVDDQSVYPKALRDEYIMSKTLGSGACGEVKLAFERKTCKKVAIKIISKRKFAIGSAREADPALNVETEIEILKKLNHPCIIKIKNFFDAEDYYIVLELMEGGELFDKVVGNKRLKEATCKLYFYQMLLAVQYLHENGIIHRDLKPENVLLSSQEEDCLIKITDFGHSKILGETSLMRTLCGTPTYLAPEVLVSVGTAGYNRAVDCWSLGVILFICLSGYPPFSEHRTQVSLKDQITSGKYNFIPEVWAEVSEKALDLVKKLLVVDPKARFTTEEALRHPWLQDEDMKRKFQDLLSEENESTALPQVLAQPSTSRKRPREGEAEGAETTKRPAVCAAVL
RIPK2, sequence (O43353 whole entry, species assumed): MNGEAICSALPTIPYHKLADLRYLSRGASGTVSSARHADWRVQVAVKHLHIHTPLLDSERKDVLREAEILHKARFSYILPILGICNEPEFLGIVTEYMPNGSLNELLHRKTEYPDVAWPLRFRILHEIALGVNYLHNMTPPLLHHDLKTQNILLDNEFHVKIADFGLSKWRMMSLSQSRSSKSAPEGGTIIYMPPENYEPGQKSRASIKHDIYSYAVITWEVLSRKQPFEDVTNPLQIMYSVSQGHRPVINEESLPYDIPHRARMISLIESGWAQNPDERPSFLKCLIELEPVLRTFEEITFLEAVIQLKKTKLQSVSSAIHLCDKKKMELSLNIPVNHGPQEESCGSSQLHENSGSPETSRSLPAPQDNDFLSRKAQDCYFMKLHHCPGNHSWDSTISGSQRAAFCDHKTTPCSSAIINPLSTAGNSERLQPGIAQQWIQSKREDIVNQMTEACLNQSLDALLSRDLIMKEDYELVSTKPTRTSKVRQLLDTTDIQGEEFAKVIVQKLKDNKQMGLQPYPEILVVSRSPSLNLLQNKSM
p38a MAPK, sequence (Q16539 whole entry): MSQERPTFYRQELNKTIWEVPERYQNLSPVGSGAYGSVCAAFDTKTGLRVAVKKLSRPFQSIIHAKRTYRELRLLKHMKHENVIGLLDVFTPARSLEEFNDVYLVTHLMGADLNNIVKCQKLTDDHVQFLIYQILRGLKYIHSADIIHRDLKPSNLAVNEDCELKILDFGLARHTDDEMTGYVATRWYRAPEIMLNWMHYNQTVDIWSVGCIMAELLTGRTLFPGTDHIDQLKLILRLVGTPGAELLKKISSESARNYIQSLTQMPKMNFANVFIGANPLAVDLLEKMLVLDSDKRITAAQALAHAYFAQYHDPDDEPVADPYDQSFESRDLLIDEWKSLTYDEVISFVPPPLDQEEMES

Compound: CC(=O)Nc1nc2cc(F)ccc2s1 [Compound 03-77]
- remaining activity at 100 µM (MARK3; read-out: residual kinase activity, MARK3): 58%
- remaining activity at 100 µM (MSK1; read-out: residual kinase activity, MSK1): 74%
- remaining activity at 100 µM (BTK; read-out: residual kinase activity, BTK): 105%
- remaining activity at 100 µM (PLK1; read-out: residual kinase activity, PLK1): 78%
- remaining activity at 100 µM (PKA; read-out: residual kinase activity, PKA): 95%
- remaining activity at 100 µM (CAMKKb; read-out: residual kinase activity, CAMKKb): 74%
- remaining activity at 100 µM (p38a MAPK; read-out: residual kinase activity, p38a MAPK): 88%
- remaining activity at 100 µM (DYRK1A; read-out: residual kinase activity, DYRK1A): 7%
- remaining activity at 100 µM (RSK2; read-out: residual kinase activity, RSK2): 83%
- remaining activity at 100 µM (SYK; read-out: residual kinase activity, SYK): 82%
- remaining activity at 100 µM (CHK2; read-out: residual kinase activity, CHK2): 63%
- remaining activity at 100 µM (TBK1; read-out: residual kinase activity, TBK1): 74%
- remaining activity at 100 µM (MKK1; read-out: residual kinase activity, MKK1): 87%
- remaining activity at 100 µM (PKCa; read-out: residual kinase activity, PKCa): 101%
- remaining activity at 100 µM (Lck; read-out: residual kinase activity, Lck): 96%
- remaining activity at 100 µM (EPH-A2; read-out: residual kinase activity, EPH-A2): 106%
- remaining activity at 100 µM (JAK2; read-out: residual kinase activity, JAK2): 57%
- remaining activity at 100 µM (PDK1; read-out: residual kinase activity, PDK1): 91%
- remaining activity at 100 µM (PKBa; read-out: residual kinase activity, PKBa): 95%
- remaining activity at 100 µM (p38b MAPK; read-out: residual kinase activity, p38b MAPK): 79%
- remaining activity at 100 µM (EF2K; read-out: residual kinase activity, EF2K): 99%
- remaining activity at 100 µM (PAK4; read-out: residual kinase activity, PAK4): 97%
- remaining activity at 100 µM (RIPK2; read-out: residual kinase activity, RIPK2): 64%
- remaining activity at 100 µM (PIM1; read-out: residual kinase activity, PIM1): 19%

Compound: O=C(Nc1nc2ccc(O)cc2s1)c1ccncc1 [Compound 08-42]
- residual kinase activity, MARK3 (MARK3): 68
- residual kinase activity, MSK1 (MSK1): 92
- residual kinase activity, BTK (BTK): 59
- residual kinase activity, PLK1 (PLK1): 74
- residual kinase activity, PKA (PKA): 91
- residual kinase activity, CAMKKb (CAMKKb): 68
- residual kinase activity, p38a MAPK (p38a MAPK): 99
- residual kinase activity, DYRK1A (DYRK1A): 15
- residual kinase activity, RSK2 (RSK2): 62
- residual kinase activity, SYK (SYK): 90
- residual kinase activity, CHK2 (CHK2): 22
- residual kinase activity, TBK1 (TBK1): 61
- residual kinase activity, MKK1 (MKK1): 87
- residual kinase activity, PKCa (PKCa): 81
- residual kinase activity, Lck (Lck): 79
- residual kinase activity, EPH-A2 (EPH-A2): 77
- residual kinase activity, JAK2 (JAK2): 50
- residual kinase activity, PDK1 (PDK1): 83
- residual kinase activity, PKBa (PKBa): 90
- residual kinase activity, p38b MAPK (p38b MAPK): 86
- residual kinase activity, EF2K (EF2K): 79
- residual kinase activity, PAK4 (PAK4): 69
- residual kinase activity, RIPK2 (RIPK2): 30
- residual kinase activity, PIM1 (PIM1): 59

Compound: O=C(Nc1nc2ccc(O)cc2s1)c1cccnc1 [Compound 08-44]
- residual kinase activity, MARK3 (MARK3): 65
- residual kinase activity, MSK1 (MSK1): 49
- residual kinase activity, BTK (BTK): 54
- residual kinase activity, PLK1 (PLK1): 63
- residual kinase activity, PKA (PKA): 92
- residual kinase activity, CAMKKb (CAMKKb): 59
- residual kinase activity, p38a MAPK (p38a MAPK): 108
- residual kinase activity, DYRK1A (DYRK1A): 8
- residual kinase activity, RSK2 (RSK2): 56
- residual kinase activity, SYK (SYK): 71
- residual kinase activity, CHK2 (CHK2): 16
- residual kinase activity, TBK1 (TBK1): 81
- residual kinase activity, MKK1 (MKK1): 67
- residual kinase activity, PKCa (PKCa): 67
- residual kinase activity, Lck (Lck): 82
- residual kinase activity, EPH-A2 (EPH-A2): 81
- residual kinase activity, JAK2 (JAK2): 30
- residual kinase activity, PDK1 (PDK1): 77
- residual kinase activity, PKBa (PKBa): 83
- residual kinase activity, p38b MAPK (p38b MAPK): 89
- residual kinase activity, EF2K (EF2K): 67
- residual kinase activity, PAK4 (PAK4): 64
- residual kinase activity, RIPK2 (RIPK2): 21
- residual kinase activity, PIM1 (PIM1): 42

Source: patent US10231954B2, “Neurodegenerative therapies” (LYTIX BIOPHARMA AS, priority 2014, dated 2019)
